In ChEMBL document CHEMBL3091296, “Design, synthesis and biological evaluation of 3-benzyloxy-linked pyrimidinylphenylamine derivatives as potent HIV-1 NNRTIs” (Bioorg Med Chem, 2013):

Tests used:
[1] = Selectivity index, ratio of CC50 for human MT4 cells to EC50 for wild-type HIV1 3B infected in MT4 cells; assay type: toxicity, cell-based; conditions: read-out: Ratio CC50/EC50
[2] = test system: Human immunodeficiency virus 1; experiment: Antiviral activity against wild-type HIV1 3B infected in MT4 cells assessed as reduction in virus-induced cytopathic effect after 5 days by MTT assay; assay type: functional, organism-based; conditions: Human immunodeficiency virus 1, 3B, MT4, 120 h
[3] = test system: Human immunodeficiency virus 2; experiment: Antiviral activity against HIV2 ROD infected in MT4 cells assessed as reduction in virus-induced cytopathic effect after 5 days by MTT assay; assay type: functional, organism-based; conditions: Human immunodeficiency virus 2, ISOLATE ROD, MT4, 120 h
[4] = Cytotoxicity against mock-infected human MT4 cells after 5 days by MTT assay; assay type: cell-based
[5] = test system: Human immunodeficiency virus 1; experiment: Antiviral activity against HIV1 harboring reverse transcriptase K103N/Y181C mutant infected in MT4 cells assessed as reduction in virus-induced cytopathic effect after 5 days by MTT assay; assay type: functional, organism-based; conditions: Human immunodeficiency virus 1, MT4, 120 h
[6] = biological target: Human immunodeficiency virus type 1 reverse transcriptase (Human immunodeficiency virus 1, UniProt Q72547); experiment: Inhibition of HIV-1 reverse transcriptase assessed as inhibition of biotin dUTP incorporation by primer extension assay

Row | Structure (SMILES) | selectivity ratio [1] | EC50 [2] [µM] | EC50 [3] [µM] | CC50 at 120 h [4] [µM] | EC50 [5] [µM] | IC50 [6] [µM]
1 | COc1ccnc(Nc2ccc(Cl)c(Oc3ccccc3)c2)n1 | 15 | – | – | – | – | –
2 | COc1ccnc(Nc2ccc(Cl)c(OCc3ccc(C#N)cc3)c2)n1 | 17 | 17 | > 283 | 283 | > 283 | –
3 | COc1ccnc(Nc2ccc(Cl)c(OCc3ccccc3C)c2)n1 | 106 | 0.082 | > 8.8 | 8.8 | > 8.8 | –
4 | COc1ccc(COc2cc(Nc3nccc(OC)n3)ccc2Cl)cc1 | ≥ 37 | 7.8 | > 290 | ≥ 290 | > 290 | –
5 | COc1ccnc(Nc2ccc(Cl)c(OCc3ccc([N+](=O)[O-])cc3)c2)n1 | > 1 | > 323 | – | > 323 | – | –
6 | COC(=O)c1ccc(COc2cc(Nc3nccc(OC)n3)ccc2Cl)cc1 | < 1 | > 106 | > 1.6 | ≥ 106 | – | –
7 | COc1ccnc(Nc2ccc(Cl)c(OCc3ccc(C(N)=O)cc3)c2)n1 | > 9 | 35 | > 325 | > 325 | > 325 | –
8 | COc1ccnc(Nc2ccc(Cl)c(OCc3cccc(Cl)c3)c2)n1 | > 1460 | 0.23 | > 332 | > 332 | > 332 | –
9 | COc1ccnc(Nc2ccc(Cl)c(OCc3ccc(Cl)cc3)c2)n1 | 12 | 7.7 | > 95 | 95 | > 95 | –
10 | COc1ccnc(Nc2ccc(Cl)c(OCc3ccc(Cl)cc3Cl)c2)n1 | < 1 | > 77 | > 77 | 77 | – | –
11 | COc1ccnc(Nc2ccc(Cl)c(OCc3ccc(Cl)c(Cl)c3)c2)n1 | > 1 | > 304 | > 304 | > 304 | – | –
12 | COc1ccnc(Nc2ccc(Cl)c(OCc3ccccc3F)c2)n1 | 777 | 0.05 | > 42 | 42 | > 42 | –
13 | COc1ccnc(Nc2ccc(Cl)c(OCc3cccc(F)c3)c2)n1 | > 4870 | 0.07 | > 347 | > 347 | > 347 | 1.5
14 | COc1ccnc(Nc2ccc(Cl)c(OCc3ccc(F)cc3)c2)n1 | 309 | 0.71 | > 218 | 218 | > 218 | –
15 | COc1ccnc(Nc2ccc(Cl)c(OCc3ccccc3Br)c2)n1 | 158 | 0.33 | > 52 | 52 | > 52 | –
16 | COc1ccnc(Nc2ccc(Cl)c(OCc3cccc(Br)c3)c2)n1 | > 393 | 0.76 | > 297 | > 297 | > 297 | –
17 | COc1ccnc(Nc2ccc(Cl)c(OCc3ccc(Br)cc3)c2)n1 | 10 | 23 | > 224 | 224 | > 224 | –
18 | COc1ccnc(Nc2ccc(Cl)c(OCc3ccccc3C#N)c2)n1 | 1290 | 0.15 | > 199 | 199 | > 199 | –
19 | COc1ccnc(Nc2ccc(Cl)c(OCc3ccccc3Cl)c2)n1 | 143 | 0.23 | > 33 | 33 | > 33 | –
20 | COc1ccnc(Nc2ccc(Cl)c(OCc3ccccc3)c2)n1 | 833 | 0.075 | > 62 | 62 | > 62 | –
21 | O=C1Nc2ccc(Cl)cc2[C@@](C#CC2CC2)(C(F)(F)F)O1 [EFAVIRENZ] | > 693 | 0.009 | – | – | 0.52 | –
22 | Cc1ccnc2c1NC(=O)c1cccnc1N2C1CC1 [NEVIRAPINE] | – | 0.113 | – | > 15 | > 5 | –
